A word on the EC50: it is the concentration giving half of the maximal effect.

Structures are written as SMILES.

The target of assay [1] is hNurr1_RXRγFL (NURR1/RXRγ heterodimer) (Homo sapiens, UniProt P43354+P48443). Description: Transactivation assay in Cos-7 cells, NURR-1-Gal4 / RXRγ, luciferase reporter. The settings on record: for Emax: COS-7, read-out: hNurr1_RXRγFL Eff (%), efficacy in % relative to the reference XCT0135908 at 2·10^−5 M (=100%); for EC50: Cos-7 cells, overnight incubation; for hNurr1_RXRγFL Eff (%): efficacy in % relative to the reference XCT0135908 at 2·10^−5 M (=100%). In kind it is cell-based. Here is the method: (§1) First, the capacity of the compounds according to the invention for acting as an activator of the heterodimers formed by the NURR-1 nuclear receptor and the RXR nuclear receptors was measured by an in vitro assay.
(§2) A transactivation assay was used as a primary screening assay. Cos-7 cells were co-transfected with a plasmid expressing a chimera of the human receptor NURR-1-Gal4, a plasmid expressing the human receptor RXR (RXRα or RXRγ receptor) and a reporter plasmid 5Gal4pGL3-TK-Luc. The transfections were performed by means of a chemical agent (Jet PEI).
(§3) The transfected cells were distributed in 384-well plates and left resting for 24 hours.
(§4) After 24 hours, the culture medium was changed. The products according to the invention were added (final concentration between 10^−4 and 3·10^−10 M) to the culture medium. After overnight incubation, luciferase expression was measured after addition of “SteadyGlo” according to the manufacturer's instructions (Promega).
(§5) 4-[[6-Methyl-2-phenyl-5-(2-prop enyl)-4-pyrimidinyl]amino]-benzoic acid (called XCT0135908, which was described in the article by Wallen-Mackenzie et al. published in Genes & Development 17, pages 3036-3047) at 2·10^−5 M (RXR agonist) was used as reference.
(§6) The levels of induction (designated by “efficiency”) were calculated relative to the baseline activity of each heterodimer. The results were expressed as a percentage of the level of induction relative to the level of induction obtained with the reference (the level of induction of the reference is arbitrarily taken to be 100%).

For assay [2], the target named is hNurr1_RXRαFL (NURR1/RXRα heterodimer) (Homo sapiens, UniProt P19793+P43354). Briefly: Transactivation assay in Cos-7 cells, NURR-1-Gal4 / RXRα, luciferase reporter. In kind it is cell-based. The settings on record: for Emax: COS-7, read-out: hNurr1_RXRαFL Eff (%), efficacy in % relative to the reference XCT0135908 at 2·10^−5 M (=100%); for EC50: Cos-7 cells, overnight incubation; for hNurr1_RXRαFL Eff (%): efficacy in % relative to the reference XCT0135908 at 2·10^−5 M (=100%). The protocol:
as §1, §2, §3, §4, §5, §6
A general note: In a reporter assay the amount or activity of a reporter protein is the signal.

Sequence of hNurr1_RXRγFL (NURR1/RXRγ heterodimer) (P43354 328-598): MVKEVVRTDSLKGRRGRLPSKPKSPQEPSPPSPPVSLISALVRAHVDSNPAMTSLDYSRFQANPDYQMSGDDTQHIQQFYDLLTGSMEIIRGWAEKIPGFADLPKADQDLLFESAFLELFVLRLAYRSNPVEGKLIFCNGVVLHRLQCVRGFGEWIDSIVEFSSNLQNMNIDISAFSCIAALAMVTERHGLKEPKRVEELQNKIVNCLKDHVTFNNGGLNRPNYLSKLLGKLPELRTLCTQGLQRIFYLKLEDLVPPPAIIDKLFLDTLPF
Sequence of hNurr1_RXRγFL (NURR1/RXRγ heterodimer) (P48443 whole entry, the tested form may be a part): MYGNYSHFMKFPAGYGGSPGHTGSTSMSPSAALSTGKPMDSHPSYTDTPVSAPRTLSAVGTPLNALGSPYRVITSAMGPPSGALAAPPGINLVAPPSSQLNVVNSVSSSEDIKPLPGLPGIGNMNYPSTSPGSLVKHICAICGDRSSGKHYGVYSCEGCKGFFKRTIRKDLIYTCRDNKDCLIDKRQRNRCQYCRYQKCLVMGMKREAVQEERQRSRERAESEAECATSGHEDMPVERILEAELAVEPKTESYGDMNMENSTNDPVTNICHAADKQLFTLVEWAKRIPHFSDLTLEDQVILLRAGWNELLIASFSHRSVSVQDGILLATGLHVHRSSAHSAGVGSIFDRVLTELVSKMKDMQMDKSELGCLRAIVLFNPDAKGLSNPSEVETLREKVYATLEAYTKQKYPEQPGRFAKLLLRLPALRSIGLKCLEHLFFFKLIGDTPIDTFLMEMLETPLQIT
Sequence of hNurr1_RXRαFL (NURR1/RXRα heterodimer) (P19793 whole entry, the tested form may be a part): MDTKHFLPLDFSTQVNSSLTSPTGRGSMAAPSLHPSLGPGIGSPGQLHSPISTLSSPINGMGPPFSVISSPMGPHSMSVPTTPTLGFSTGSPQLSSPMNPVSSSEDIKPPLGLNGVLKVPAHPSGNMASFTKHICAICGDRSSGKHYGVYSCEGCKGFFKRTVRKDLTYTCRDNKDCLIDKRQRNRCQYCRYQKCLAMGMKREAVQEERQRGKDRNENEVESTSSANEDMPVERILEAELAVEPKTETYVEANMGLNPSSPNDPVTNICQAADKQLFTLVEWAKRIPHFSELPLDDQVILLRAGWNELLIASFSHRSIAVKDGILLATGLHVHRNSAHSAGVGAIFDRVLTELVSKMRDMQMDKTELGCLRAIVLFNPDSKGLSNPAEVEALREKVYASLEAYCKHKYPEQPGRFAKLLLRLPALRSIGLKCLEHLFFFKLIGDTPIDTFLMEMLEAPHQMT
Sequence of hNurr1_RXRαFL (NURR1/RXRα heterodimer) (P43354 328-598): as the sequence (P43354 328-598) above

Turning to `CC(C)(C)c1cccc(S(=O)(=O)n2c(Cc3ccc(C(=O)O)o3)cc3cc(C(F)(F)F)ccc32)c1` [Example 69, 5-[[1-[[3-(1,1-dimethylethyl)-phenyl]sulfonyl]-5-trifluoromethyl-1H-indol-2-yl]methyl]-furan-2-carboxylic acid], the Emax came to 72% in assay [1] and 79% in assay [2]. The results for the EC50 in assay [1] and in assay [2] were 15 nM and 9 nM, respectively.
The matching figures for `CC(C)(C)c1cccc(S(=O)(=O)n2c(Cc3csc(C(=O)O)c3)cc3cc(C(F)(F)F)ccc32)c1` [Example 70, 4-[[1-[[3-(1,1-dimethylethyl)-phenyl]sulfonyl]-5-trifluoromethyl-1H-indol-2-yl]methyl]-thiophene-2-carboxylic acid]: 91%, 94%, 8 nM and 5 nM.
The matching figures for `CC(C)c1ccc(S(=O)(=O)n2c(Cc3ccc(C(=O)O)s3)cc3cc(C(F)(F)F)ccc32)cc1` [Example 71, 5-[[1-[[4-(1-methylethyl)-phenyl]sulfonyl]-5-trifluoromethyl-1H-indol-2-yl]methyl]-thiophene-2-carboxylic acid]: 82%, 61%, 95 nM and 47 nM.
The matching figures for `CN1CCOc2ccc(S(=O)(=O)n3c(Cc4ccc(C(=O)O)s4)cc4cc(C(F)(F)F)ccc43)cc21` [Example 73, 5-[[1-[[4-methyl-3,4-dihydro-2H-benzo[1,4]oxazin-6-yl]-sulfonyl]-5-trifluoromethyl-1H-indol-2-yl]methyl]-thiophene-2-carboxylic acid]: 89%, 94%, 66 nM and 37 nM.
For the compound `O=C(O)c1ccc(Cc2cc3cc(Cl)ccc3n2S(=O)(=O)c2ccc3c(c2)OCCO3)s1` [Example 77, 5-[[5-chloro-1-[(2,3-dihydro-benzo[1,4]dioxin-6-yl)sulfonyl]-1H-indol-2-yl]methyl]-thiophene-2-carboxylic acid], the figures for the Emax in assay [1] and in assay [2] were 38% and 74%, respectively. For the same compound, the EC50 came out at 457 nM in assay [1] and 224 nM in assay [2].
The matching figures for `Cc1c(Cc2nc(C(=O)O)cs2)n(S(=O)(=O)c2cccc(C(C)(C)C)c2)c2ccc(C(F)(F)F)cc12` [Example 86, 2-[[1-[[3-(1,1-dimethylethyl)-phenyl]sulfonyl]-3-methyl-5-(trifluoro-methyl)-1H-indol-2-yl]methyl]-thiazole-4-carboxylic acid]: 34%, 56%, 1480 nM and 490 nM.
The matching figures for `CC(C)(C)c1cccc(S(=O)(=O)n2c(Cc3nc(C(=O)O)cs3)cc3cc(C(F)(F)F)ccc32)c1` [Example 89, 2-[[1-[[3-(1,1-dimethylethyl)-phenyl]sulfonyl]-5-trifluoromethyl-1H-indol-2-yl]methyl]-thiazole-4-carboxylic acid]: 62%, 77%, 611 nM and 265 nM.
The matching figures for `COc1cc(Cc2cc3cc(Cl)ccc3n2S(=O)(=O)c2ccc(C(C)C)cc2)ccc1C(=O)O` [Example 98, 4-[[5-chloro-1-[[4-(1-methylethyl)phenyl]sulfonyl]-1H-indol-2-yl]methyl]-2-methoxybenzoic acid]: 8%, 64%, above 10000 nM and 2120 nM.
`CC(C)c1ccc(S(=O)(=O)n2c(Cc3ccc(C(=O)O)c(O)c3)cc3cc(Cl)ccc32)cc1` [Example 99, 4-[[5-chloro-1-[[4-(1-methylethyl)phenyl]sulfonyl]-1H-indol-2-yl]methyl]-2-hydroxybenzoic acid]: the Emax in assay [1] turned out to be 42%; in assay [2] it was 50%. Besides, the EC50 in assay [1] is 989 nM; in assay [2] it was 569 nM.
The matching figures for `C=C(c1ccc(C(=O)O)cc1)c1cc2cc(Cl)ccc2n1S(=O)(=O)c1ccc(C(C)C)cc1` [Example 102, 4-[1-[1[[4-(1-methylethyl)phenyl]sulfonyl]-5-(chloro)-1H-indol-2-yl]-1-ethenyl]-benzoic acid]: 27%, 49%, 676 nM and 363 nM.
For the compound `COC(=O)c1ccc(Cc2cc3cc(C(C)(C)C)ccc3n2S(=O)(=O)c2cccc(C(C)(C)C)c2)cc1` [Example 108, 4-[[1-[[3-(1,1-dimethylethyl)phenyl]sulfonyl]-5-(tert-butyl)-1H-indol-2-yl]methyl]benzoic acid, methyl ester], in assay [1], the Emax stood at 77% and the EC50 was 646 nM. Also, in assay [2], the Emax is 110% and the EC50 is 157 nM.
The matching figures for `COC(=O)c1ccc(Cc2cc3cc(C(F)(F)F)c(F)cc3n2S(=O)(=O)c2cccc(C(C)(C)C)c2)cc1` [Example 110, 4-[[1-[[3-(1,1-dimethylethyl)phenyl]sulfonyl]-5-(trifluoro)-6-fluoro-1H-indol-2-yl]methyl]benzoic acid, methyl ester]: 95%, 63 nM, 92% and 15 nM.
The matching figures for `COC(=O)c1ccc(Cc2cc3cccc(F)c3n2S(=O)(=O)c2cccc(C(C)(C)C)c2)cc1` [Example 113, 4-[[1-[[3-(1,1-dimethylethyl)phenyl]sulfonyl]-7-fluoro-1H-indol-2-yl]methyl]benzoic acid, methyl ester]: 97%, 1860 nM, 103% and above 10000 nM.
Turning to `CC(C)c1cccc(S(=O)(=O)n2c(Cc3ccc(C(=O)O)cc3)cc3cc(C(F)(F)F)ccc32)c1` [Example 114, 4-[[1-[[3-(1-methylethyl)phenyl]sulfonyl]-5-(trifluoromethyl)-1H-indol-2-yl]methyl]benzoic acid], in assay [1], the EC50 was found to be 145 nM and the “hNurr1_RXRγFL Eff (%)” value amounted to 76%. In addition, in assay [2], the EC50 is 63 nM and the “hNurr1_RXRαFL Eff (%)” value stood at 109%.
For the compound `CC(C)c1cccc(S(=O)(=O)n2c(Cc3ccc(C(=O)O)cc3)cc3cc(N4CCCC4)ccc32)c1` [Example 116, 4-[[1-[[3-(1-methylethyl)phenyl]sulfonyl]-5-(pyrrolidin)-1H-indol-2-yl]methyl]benzoic acid], in assay [1], a half-maximal effect (EC50) was put at 1440 nM and the “hNurr1_RXRγFL Eff (%)” value was 50%. Also, in assay [2], a half-maximal response (EC50) required 871 nM and the “hNurr1_RXRαFL Eff (%)” value was 74%.
`CC(C)(C)c1cccc(S(=O)(=O)n2c(Cc3ccc(C(=O)O)cc3)cc3cc(C(F)(F)F)c(F)cc32)c1` [Example 117, 4-[[1-[[3-(1,1-dimethylethyl)phenyl]sulfonyl]-5-(trifluoro)-6-fluoro-1H-indol-2-yl]methyl]benzoic acid]: the Emax was found to be 73% in assay [1] and 84% in assay [2]. The results for the EC50 in assay [1] and in assay [2] were 91 nM and 39 nM, respectively.
On to `Cc1ccc2c(c1)cc(Cc1ccc(C(=O)O)cc1)n2S(=O)(=O)c1cccc(C(C)(C)C)c1` [Example 118, 4-[[1-[[3-(1,1-dimethylethyl)phenyl]sulfonyl]-5-(methyl)-1H-indol-2-yl]methyl]benzoic acid], for which, in assay [1], the Emax was found to be 65% and the midpoint of the response, the EC50, lay at 473 nM. For the same compound, in assay [2], the Emax came to 75% and the midpoint of the response, the EC50, lay at 279 nM.
As to `CC(C)(C)c1cccc(S(=O)(=O)n2c(Cc3ccc(C(=O)O)cc3)cc3c(Cl)c(Cl)ccc32)c1` [Example 119, 4-[[1-[[3-(1,1-dimethylethyl)phenyl]sulfonyl]-4-(chloro)-5-(chloro)-1H-indol-2-yl]methyl]benzoic acid], the Emax in assay [1] was 82%; in assay [2], 71%. Further, the results for the concentration giving a half-maximal response (EC50) in assay [1] and in assay [2] were 266 nM and 65 nM, respectively.
The matching figures for `COc1ccc(S(=O)(=O)n2c(Cc3ccc(C(=O)O)cc3)cc3cc(C(F)(F)F)ccc32)cn1` [Example 120, 4-[[1-[(6-methoxy-3-pyridinyl)sulfonyl]-5-(trifluoromethyl)-1H-indol-2-yl]methyl]benzoic acid]: 49%, 68%, 661 nM and 202 nM.
In the case of `Cc1cc(S(=O)(=O)n2c(Cc3ccc(C(=O)O)cc3)cc3cc(C(F)(F)F)ccc32)ccc1Cl` [Example 121, 4-[[1-[4-chloro-3-methyl-phenylsulfonyl]-5-(trifluoromethyl)-1H-indol-2-yl]methyl]benzoic acid], in assay [1], the Emax came to 56% and the EC50 worked out at 433 nM. In addition, in assay [2], the Emax was 65% and the EC50 came to 192 nM.

Values taken from patent US20120232070A1, “Use of Indole Derivatives as Nurr-1 Activators for the Application Thereof as a Medicament for the Treatment of Parkinson's Disease” (Laboratoires Fournier SA, priority 2009, published 2012).
